Experimental data: ChEMBL document CHEMBL1126936, “Synthesis and antitumor activity of 10-propargyl-10-deazaaminopterin” (J Med Chem, 1993)
pIC50, pKi: −log10 of the molar value.

Columns and labels:
Mus musculus [1] = experiment: Average E0771 solid murine mammary tumor volume in BDF1 female mice (n=5) at 3 mg/kg at 10 day post treatment point; Expressed as % T/C; assay type: functional
Mus musculus [2] = experiment: Average E0771 solid murine mammary tumor volume in BDF1 female mice (n=5) at 9 mg/kg at 14 day post treatment point; assay type: functional
Mus musculus [3] = experiment: Average E0771 solid murine mammary tumor volume in BDF1 female mice (n=5) at 3 mg/kg at 21 day post treatment point; assay type: functional
Mus musculus [4] = species: Mus musculus; experiment: (§1) Transport influx which is determined by competitive binding for the transport protein; expressed as Ki (uM); assay type: functional, organism-based
Mus musculus [5] = experiment: Average E0771 solid murine mammary tumor volume in BDF1 female mice (n=5) at 3 mg/kg at 21 day post treatment point; Expressed as % T/C; assay type: functional
Mus musculus [6] = experiment: Average E0771 solid murine mammary tumor volume in BDF1 female mice (n=5) at 9 mg/kg at 21 day post treatment point; assay type: functional
Mus musculus [7] = experiment: Average E0771 solid murine mammary tumor volume in BDF1 female mice (n=5) at 6 mg/kg at 14 day post treatment point; assay type: functional
Mus musculus [8] = experiment: Average E0771 solid murine mammary tumor volume in BDF1 female mice (n=5) at 6 mg/kg at 21 day post treatment point; Expressed as % T/C; assay type: functional
Mus musculus [9] = experiment: Average E0771 solid murine mammary tumor volume in BDF1 female mice (n=5) at 3 mg/kg at 14 day post treatment point; assay type: functional
Mus musculus [10] = experiment: Average E0771 solid murine mammary tumor volume in BDF1 female mice (n=5) at 3 mg/kg at 14 day post treatment point; Expressed as % T/C; assay type: functional
Mus musculus [11] = experiment: Average E0771 solid murine mammary tumor volume in BDF1 female mice (n=5) at 6 mg/kg at 10 day post treatment point; assay type: functional
Mus musculus [12] = experiment: Average E0771 solid murine mammary tumor volume in BDF1 female mice (n=5) at 6 mg/kg at 14 day post treatment point; Expressed as % T/C; assay type: functional
Mus musculus [13] = experiment: Average E0771 solid murine mammary tumor volume in BDF1 female mice (n=5) at 9 mg/kg at 10 day post treatment point; assay type: functional
Mus musculus [14] = experiment: Average E0771 solid murine mammary tumor volume in BDF1 female mice (n=5) at 9 mg/kg at 21 day post treatment point; Expressed as % T/C; assay type: functional
Mus musculus [15] = experiment: Average E0771 solid murine mammary tumor volume in BDF1 female mice (n=5) at 3 mg/kg at 10 day post treatment point; assay type: functional
Mus musculus [16] = experiment: Average E0771 solid murine mammary tumor volume in BDF1 female mice (n=5) at 9 mg/kg at 14 day post treatment point; Expressed as % T/C; assay type: functional
L1210 [17] = experiment: (§2) Inhibition of growth in L1210 murine leukemia cells in culture expressed as IC50 (nM); assay type: functional, cell-based; conditions: Mus musculus
Mus musculus [18] = experiment: Average E0771 solid murine mammary tumor volume in BDF1 female mice (n=5) at 9 mg/kg at 10 day post treatment point; Expressed as % T/C; assay type: functional
Mus musculus [19] = experiment: Average E0771 solid murine mammary tumor volume in BDF1 female mice (n=5) at 6 mg/kg at 21 day post treatment point; assay type: functional
Mus musculus [20] = experiment: Average E0771 solid murine mammary tumor volume in BDF1 female mice (n=5) at 6 mg/kg at 10 day post treatment point; Expressed as % T/C; assay type: functional
Dihydrofolate reductase = target: T1, Dihydrofolate reductase (Mus musculus, UniProt P00375); experiment: Inhibition of Dihydrofolate reductase (DHFR) enzyme derived from L1210 cells expressed as Ki (pM); assay type: cell-based
T1 sequence (P00375 whole entry): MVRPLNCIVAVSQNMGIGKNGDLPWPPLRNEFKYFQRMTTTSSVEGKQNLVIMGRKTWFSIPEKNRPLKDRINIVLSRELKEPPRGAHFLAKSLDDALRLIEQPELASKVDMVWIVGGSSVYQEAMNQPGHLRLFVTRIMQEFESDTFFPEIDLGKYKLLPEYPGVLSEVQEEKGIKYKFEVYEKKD

Mus musculus [21] = species: Mus musculus; experiment: as §2; assay type: functional, cell-based
L1210 [22] = experiment: as §1; assay type: functional, cell-based, Mus musculus
Mus musculus [23] = experiment: Average E0771 solid murine mammary tumor volume in BDF1 female mice (n=5) at 24 mg/kg at 10 day post treatment point; assay type: functional
Mus musculus [24] = experiment: Average E0771 solid murine mammary tumor volume in BDF1 female mice (n=5) at 24 mg/kg at 21 day post treatment point; Expressed as % T/C; assay type: functional
Mus musculus [25] = experiment: Average E0771 solid murine mammary tumor volume in BDF1 female mice (n=5) at 24 mg/kg at 14 day post treatment point; assay type: functional
Mus musculus [26] = experiment: Average E0771 solid murine mammary tumor volume in BDF1 female mice (n=5) at 36 mg/kg at 14 day post treatment point; Expressed as % T/C; assay type: functional
Mus musculus [27] = experiment: Average E0771 solid murine mammary tumor volume in BDF1 female mice (n=5) at 36 mg/kg at 21 day post treatment point; Expressed as % T/C; assay type: functional
Mus musculus [28] = experiment: Average E0771 solid murine mammary tumor volume in BDF1 female mice (n=5) at 24 mg/kg at 10 day post treatment point; Expressed as % T/C; assay type: functional
Mus musculus [29] = experiment: Average E0771 solid murine mammary tumor volume in BDF1 female mice (n=5) at 36 mg/kg at 10 day post treatment point; assay type: functional
Mus musculus [30] = experiment: Average E0771 solid murine mammary tumor volume in BDF1 female mice (n=5) at 24 mg/kg at 14 day post treatment point; Expressed as % T/C; assay type: functional
Mus musculus [31] = experiment: Average E0771 solid murine mammary tumor volume in BDF1 female mice (n=3) at 36 mg/kg at 21 day post treatment point
Mus musculus [32] = experiment: Average E0771 solid murine mammary tumor volume in BDF1 female mice (n=3) at 36 mg/kg at 14 day post treatment point
Mus musculus [33] = experiment: Average E0771 solid murine mammary tumor volume in BDF1 female mice (n=5) at 24 mg/kg at 21 day post treatment point; assay type: functional
Mus musculus [34] = experiment: Average E0771 solid murine mammary tumor volume in BDF1 female mice (n=5) at 36 mg/kg at 10 day post treatment point; Expressed as % T/C; assay type: functional

CN(Cc1cnc2nc(N)nc(N)c2n1)c1ccc(C(=O)N[C@@H](CCC(=O)O)C(=O)O)cc1 [METHOTREXATE]
T/C (Mus musculus [1]): 86% | Average tumor volume (Mus musculus [2]): 19 mm**3 | Average tumor volume (Mus musculus [3]): 1260 mm**3 | pKi (Mus musculus [4]): 5.38 | T/C (Mus musculus [5]): 61% | Average tumor volume (Mus musculus [6]): 310 mm**3 | Average tumor volume (Mus musculus [7]): 19 mm**3 | T/C (Mus musculus [8]): 18% | Average tumor volume (Mus musculus [9]): 187 mm**3 | T/C (Mus musculus [10]): 15% | Average tumor volume (Mus musculus [11]): 34 mm**3 | T/C (Mus musculus [12]): 2% | Average tumor volume (Mus musculus [13]): 4 mm**3 | T/C (Mus musculus [14]): 15% | Average tumor volume (Mus musculus [15]): 113 mm**3 | T/C (Mus musculus [16]): 2% | pIC50 (L1210 [17]): 8.02 | T/C (Mus musculus [18]): 3% | Average tumor volume (Mus musculus [19]): 382 mm**3 | T/C (Mus musculus [20]): 26%

CC(Cc1cnc2nc(N)nc(N)c2n1)c1ccc(C(=O)NC(CCC(=O)O)C(=O)O)cc1 (configuration not stated)
pKi (Mus musculus [4]): 6.02 | pKi (Dihydrofolate reductase): 11.39 | pIC50 (Mus musculus [21]): 8.87

CCCC(Cc1cnc2nc(N)nc(N)c2n1)c1ccc(C(=O)NC(CCC(=O)O)C(=O)O)cc1 (configuration not stated)
pKi (Dihydrofolate reductase): 11.04 | pKi (L1210 [22]): 5.96 | pIC50 (L1210 [17]): 8.69

Nc1nc(N)c2nc(CCc3ccc(C(=O)N[C@@H](CCC(=O)O)C(=O)O)cc3)cnc2n1
pKi (Mus musculus [4]): 6.05 | pKi (Dihydrofolate reductase): 11.44 | pIC50 (Mus musculus [21]): 8.74

CCCCCC(Cc1cnc2nc(N)nc(N)c2n1)c1ccc(C(=O)NC(CCC(=O)O)C(=O)O)cc1 (configuration not stated)
pKi (Dihydrofolate reductase): < 9.00 | pKi (L1210 [22]): 6.00 | pIC50 (L1210 [17]): 6.60

C#CCC(Cc1cnc2nc(N)nc(N)c2n1)c1ccc(C(=O)NC(CCC(=O)O)C(=O)O)cc1 (configuration not stated)
Average tumor volume (Mus musculus [23]): 62 mm**3 | T/C (Mus musculus [24]): 10% | Average tumor volume (Mus musculus [25]): 19 mm**3 | pKi (Mus musculus [4]): 6.35 | T/C (Mus musculus [26]): 1% | T/C (Mus musculus [27]): 1% | T/C (Mus musculus [28]): 47% | Average tumor volume (Mus musculus [29]): 48 mm**3 | T/C (Mus musculus [30]): 2% | Average tumor volume (Mus musculus [31]): 21 mm**3 | pKi (Dihydrofolate reductase): 10.74 | Average tumor volume (Mus musculus [32]): 6 mm**3 | Average tumor volume (Mus musculus [33]): 204 mm**3 | pIC50 (Mus musculus [21]): 8.70 | T/C (Mus musculus [34]): 31%
